Experimental data published in patent publication US20250109127A1, “METHODS OF USE OF PHENOXYPROPYLAMINE COMPOUNDS TO TREAT DEPRESSION” (Minerva Neurosciences, Inc., priority 2013, published 2025).
Values joined by “and” are separate entries in the source; they are usually repeats but may differ in a detail not shown here. Equal values may be shown once. Where a name gives a salt, the structure may show the parent alone.

Test system: HVA release in the rat prefrontal cortex
Assay: Microdialysis: HVA release in prefrontal cortex after I.P. administration
Format: in vivo
Details: for HVA (% of respective basal), individual animal: 0.1 mg/kg I.P., c2-c9 = R#13,14,20,19,25,26,31,32; for HVA (% of respective basal), individual animal / HVA release, individual animals: hydrochloride; for HVA release, MEAN / HVA release, individual animals: 0.3 mg/kg I.P.; for HVA release, MEAN / HVA release (% of basal levels) measured in dialysates, MEAN: n = 8; for HVA release, individual animals: one column per animal R#11,12,18,23,29,30,17,24; for HVA release (% of basal levels) measured in dialysates, MEAN: SON-117 3 mg/kg IP
Description: The aim of the study was to evaluate, using microdialysis, the effects of an intraperitoneal (I.P.) administration in rats of three different doses of SON-117 on dopamine and its metabolites, serotonin and its metabolite (5-HIAA), and norepinephrine levels in prefrontal cortex.
Thirty-two adult male Wistar rats were used for the whole study (4 groups of eight animals planned for the study, Table 1).
Surgery was performed on rats weighing about 300 g at the beginning of the experiments. Rats were anaesthetized with Ketamine (50 mg/kg) & Xylazine (15 mg/kg) by intramuscular administration. The animals were placed in a stereotaxic apparatus in the flat-skull position at a constant setting of −3.3 mm between ear bars and the incisor bar. The animals were treated with a local anesthesic (xylocaine 1%, Astra Zeneca) and an analgesic (Temgesic, from Schering Plough, 0.05 mg/kg, s.c.). A rostrocaudal midline incision was made with a lancet to expose the dorsal skull surface. The “stereotaxic zero” was defined by the Bregma in accordance with Paxinos and Watson's atlas (1986). A hole was drilled in the skull with a drill and the meninges were pierced with a sterile needle to implant a CMA12 guide cannula which later received the dialysis probe.
Coordinates used for implanting guide cannula in prefrontal cortex from Bregma were anteroposterior 3.7 mm, mediolateral 0.8 mm, and dorsoventral −2 mm (top of the probe was at −5 mm). The guide cannula was fixed to the skull with two stainless steel screws (1.88 mm outside diameter) anchored. An application of dental cement was added. A plastic collar allowed each animal to be tethered to a Swivel assembly of the CMA 120 awake animal system. Following surgery, rats were kept in individual cages and allowed to recover for a minimum of 3-5 days before the experimentation. The rats were handled and put in plastic bowl for 10 min at least every day to habituate the animals to their new environment for the dialysis. An I.P. administration with saline was also performed every day.
Dialysis probes (CMA12/3 mm, membrane, 20 kD cut-off, Carnegie Medicine, Stockholm, Sweden), were carefully washed before inserting into the guide cannula. The wash was performed with the artificial cerebrospinal fluid (aCSF) medium (NaCl 147 mM, KCl 2.7 mM, CaCl2 1.2 mM, MgCl2 0.85 mM) at room temperature. The dialysis system was then equilibrated at 20° C. at a perfusion rate of 1 μl/min with a Carnegie pump (CMA100). All catheters (FEP tubing, internal volume of 1.2 μl/10 cm, and tubing adaptors) used for microdialysis were treated in the same conditions.
The probes duly prepared were inserted into the guide cannula and the CMA120 Swivel assembly secured to the animal using a plastic collar. Flow through the dialysis probe with aCSF was maintained at a rate of 1 μl/min during the whole experimentation. The first four fractions (corresponding to 2 hours) were discarded to avoid the effects of parenchymal disturbance and to ensure that an approximate steady-state level was reached. Fractions were then collected over a period of 8.5 h during which time the animals remained quiet. The dialysates were automatically collected with an autosampler (microfraction collector CMA 140, Carnegie Medicin) and stored at −80° C. until analysis. […] Perfusion was then maintained for 7 hours with aCSF. The dialysates (30 μl) were collected into 300 μl vials, transferred into dry ice and then kept frozen (−80° C.) until analysis. Frozen samples were shipped to a partner for analysis. At the end of the microdialysis study, a PBS with colored ink was perfused through the probe in order to visualize the dialyzed area.
Catecholamine assay: Concentrations of dopamine, DOPAC, HVA, 5-HIAA, 5-HT, and norepinephrin were determined for each sample by HPLC coupled with electrochemical detection.

## Cc1nnc(-c2cc3c(OC[C@@H](O)CN4CCC(c5ccc(Cl)c(Cl)c5)CC4)cccc3o2)o1 [SON-117, (S)-1-(4-(3,4-dichlorophenyl)piperidino)-3-(2-(5-methyl-1,3,4-oxadiazol-2-yl)benzo(b)furan-4-yloxy)-2-propanol hydrochloride]
T30-T1 h
  HVA (% of respective basal), individual animal: 116.26 % of respective basal and 107.34 % of respective basal and 108.66 % of respective basal and 130.85 % of respective basal and 120.36 % of respective basal and 141.88 % of respective basal and 123.41 % of respective basal and 95.76 % of respective basal
  HVA release, MEAN: 94.37 % of respective basal
  HVA release, individual animals: 76.21 % of respective basal and 55.15 % of respective basal and 89.64 % of respective basal and 100.95 % of respective basal and 83.39 % of respective basal and 95.38 % of respective basal and 149.36 % of respective basal and 104.86 % of respective basal
  HVA release (% of basal levels) measured in dialysates, MEAN: 98.30 % of basal levels
T1 h 30-T2 h
  HVA (% of respective basal), individual animal: 97.75 % of respective basal and 109.52 % of respective basal and 89.93 % of respective basal and 170.371 % of respective basal and 123.81 % of respective basal and 97.71 % of respective basal and 126.7 % of respective basal and 80.99 % of respective basal
  HVA release, MEAN: 85.59 % of respective basal
  HVA release, individual animals: 89.77 % of respective basal and 59.14 % of respective basal and 96.89 % of respective basal and 103.49 % of respective basal and 82.49 % of respective basal and 54.42 % of respective basal and 95.23 % of respective basal and 103.32 % of respective basal
T1 h-T1 h 30
  HVA (% of respective basal), individual animal: 124.25 % of respective basal and 162.58 % of respective basal and 98.567 % of respective basal and 241.96 % of respective basal and 130.93 % of respective basal and 153.68 % of respective basal and 123.58 % of respective basal and 80.09 % of respective basal
  HVA release, MEAN: 120.85 % of respective basal
  HVA release, individual animals: 90.43 % of respective basal and 68.90 % of respective basal and 103.82 % of respective basal and 116.53 % of respective basal and 80.54 % of respective basal and 85.72 % of respective basal and 305.74 % of respective basal and 115.15 % of respective basal
T2 h 30-T3 h
  HVA (% of respective basal), individual animal: 88.46 % of respective basal and 123.19 % of respective basal and 75.76 % of respective basal and 151.82 % of respective basal and 149.48 % of respective basal and 157.13 % of respective basal and 121.53 % of respective basal and 21.68 % of respective basal
  HVA release, MEAN: 107.95 % of respective basal
  HVA release, individual animals: 72.76 % of respective basal and 59.51 % of respective basal and 90.20 % of respective basal and 316.58 % of respective basal and 70.98 % of respective basal and 94.71 % of respective basal and 54.48 % of respective basal and 104.42 % of respective basal
T2 h-T2 h 30
  HVA (% of respective basal), individual animal: 83.46 % of respective basal and 121.21 % of respective basal and 80.97 % of respective basal and 145.084 % of respective basal and 132.39 % of respective basal and 106.30 % of respective basal and 139.18 % of respective basal and 53.45 % of respective basal
  HVA release, MEAN: 85.33 % of respective basal
  HVA release, individual animals: 68.39 % of respective basal and 70.39 % of respective basal and 95.76 % of respective basal and 101.52 % of respective basal and 72.96 % of respective basal and 85.03 % of respective basal and 97.42 % of respective basal and 91.18 % of respective basal
T3 h 30-T4 h
  HVA (% of respective basal), individual animal: 94.31 % of respective basal and 116.57 % of respective basal and 55.89 % of respective basal and 152.08 % of respective basal and 193.52 % of respective basal and 154.95 % of respective basal and 123.32 % of respective basal and 16.37 % of respective basal
  HVA release, MEAN: 90.45 % of respective basal
  HVA release, individual animals: 64.18 % of respective basal and 83.25 % of respective basal and 133.74 % of respective basal and 64.93 % of respective basal and 107.52 % of respective basal and 70.49 % of respective basal and 109.07 % of respective basal
T3 h-T3 h 30
  HVA (% of respective basal), individual animal: 135.42 % of respective basal and 99.88 % of respective basal and 73.47 % of respective basal and 137.35 % of respective basal and 137.07 % of respective basal and 115.93 % of respective basal and 133.06 % of respective basal and 20.75 % of respective basal
  HVA release, MEAN: 85.22 % of respective basal
  HVA release, individual animals: 63.81 % of respective basal and 90.24 % of respective basal and 111.62 % of respective basal and 62.71 % of respective basal and 98.55 % of respective basal and 74.57 % of respective basal and 95.05 % of respective basal
T4 h 30-T5 h
  HVA (% of respective basal), individual animal: 128.74 % of respective basal and 102.18 % of respective basal and 100.29 % of respective basal and 40.6 % of respective basal and 130.76 % of respective basal and 136.09 % of respective basal and 114.46 % of respective basal and 68.31 % of respective basal
  HVA release, MEAN: 85.23 % of respective basal
  HVA release, individual animals: 91.96 % of respective basal and 80.15 % of respective basal and 68.04 % of respective basal and 115.19 % of respective basal and 50.60 % of respective basal and 77.44 % of respective basal and 98.06 % of respective basal and 100.39 % of respective basal
T4 h-T4 h 30
  HVA (% of respective basal), individual animal: 149.58 % of respective basal and 107.72 % of respective basal and 55.17 % of respective basal and 173.59 % of respective basal and 155.95 % of respective basal and 149.97 % of respective basal and 148.42 % of respective basal and 76.98 % of respective basal
  HVA release, MEAN: 85.20 % of respective basal
  HVA release, individual animals: 92.27 % of respective basal and 67.44 % of respective basal and 79.90 % of respective basal and 118.84 % of respective basal and 74.80 % of respective basal and 79.15 % of respective basal and 73.39 % of respective basal and 95.82 % of respective basal
T5 h 30-T6 h
  HVA (% of respective basal), individual animal: 146.23 % of respective basal and 127.63 % of respective basal and 35.72 % of respective basal and 136.22 % of respective basal and 116.99 % of respective basal and 123.45 % of respective basal and 128.36 % of respective basal and 65.12 % of respective basal
  HVA release, MEAN: 83.81 % of respective basal
  HVA release, individual animals: 88.34 % of respective basal and 70.37 % of respective basal and 54.74 % of respective basal and 111.90 % of respective basal and 57.33 % of respective basal and 69.05 % of respective basal and 120.47 % of respective basal and 98.25 % of respective basal
T5 h-T5 h 30
  HVA (% of respective basal), individual animal: 143.02 % of respective basal and 149.35 % of respective basal and 36.52 % of respective basal and 131.08 % of respective basal and 120.77 % of respective basal and 117.84 % of respective basal and 126.17 % of respective basal and 77.12 % of respective basal
  HVA release, MEAN: 72.11 % of respective basal
  HVA release, individual animals: 33.79 % of respective basal and 37.83 % of respective basal and 125.18 % of respective basal and 104.80 % of respective basal and 54.92 % of respective basal and 81.46 % of respective basal and 45.38 % of respective basal and 93.54 % of respective basal
T6 h 30-T7 h
  HVA (% of respective basal), individual animal: 155.64 % of respective basal and 142.57 % of respective basal and 54.30 % of respective basal and 131.80 % of respective basal
  HVA release, MEAN: 82.40 % of respective basal
  HVA release, individual animals: 80.98 % of respective basal and 79.92 % of respective basal and 57.44 % of respective basal and 123.91 % of respective basal and 59.14 % of respective basal and 77.28 % of respective basal
T6 h-T6 h 30
  HVA (% of respective basal), individual animal: 149.66 % of respective basal and 147.03 % of respective basal and 11.88 % of respective basal and 133.32 % of respective basal and 118.76 % of respective basal and 122.29 % of respective basal and 121.40 % of respective basal and 66.42 % of respective basal
  HVA release, MEAN: 78.87 % of respective basal
  HVA release, individual animals: 80.55 % of respective basal and 69.54 % of respective basal and 51.01 % of respective basal and 121.49 % of respective basal and 63.35 % of respective basal and 86.74 % of respective basal and 63.13 % of respective basal and 95.14 % of respective basal
T0-T30 min
  HVA release, MEAN: 107.04 % of respective basal
  HVA release (% of basal levels) measured in dialysates, MEAN: 94.34 % of basal levels
T-30 min-T0 (before administration)
  HVA release, MEAN: 101.32 % of respective basal
T-1 h 30-T-1 h (before administration)
  HVA release, MEAN: 95.27 % of respective basal
T-1 h-T-30 min (before administration)
  HVA release, MEAN: 103.42 % of respective basal
SON-117 0.1 mg/kg I.P.
  HVA dialysate levels vs mean pre-administration value: no statistically significant differences
SON-117 0.3 mg/kg IP
  HVA dialysate levels vs mean pre-administration value: no statistically significant differences
